According to US8486719B2, “Multiplex assay methods and compositions” (PerkinElmer BioSignal, Inc., priority 2009, dated 2013):

Experiments:
MEK1 = MEK1 (Homo sapiens, UniProt Q02750); test: One well multiplexed assay, 572 nm signal: ERK2 phosphorylation by MEK1 with increasing ATP; assay type: biochemical; details: signal detected at 572 nm, FIG. 4; read-out: EC50 for ATP-induced ERK2 phosphorylation
Description: (§1) The kinase MEK1 is expressed with a histidine tag (6×His) at either the C- or N-terminus.
(§2) An antibody which recognizes MEK1 phosphorylated ERK2 (mouse anti-pTpY ERK1/2) is associated with acceptor beads containing thioxene, 9,10-bis(phenylethynyl)anthracene and rubrene via anti-mouse IgG antibody binding. The antibody used, p-Tyr-100, is a generic highly promiscuous anti-phosphotyrosine antibody which recognizes both mono (pY) and dual-(pTpY) phosphorylated forms of ERK2.
(§3) Increasing concentrations of ATP were used to promote the phosphorylation of ERK2 by MEK1.

MEK1/ERK2 = MEK1/ERK2 (Homo sapiens, UniProt Q02750); test: One well multiplexed assay, 615 nm signal: interaction between MEK1 and ERK2 with increasing ATP; assay type: binding; details: signal detected at 615 nm, FIG. 4; read-out: EC50 for ATP-induced MEK1/ERK2 dissociation
Description: as §1, §2, §3

[1] = biological target: T1, human bombesin (hBombesin) 3 (Homo sapiens, UniProt P32247); test: Surface expression of FLAG-tagged bombesin receptor on phthalocyanine-loaded cells, anti-FLAG acceptor beads; assay type: cell-based; details: 10 nM or 300 nM agonist, 1 hour at 37° C., Balb3T3 hBombesin 3 FLAG cells
T1 construct: expressed in transfected cells; host or cells: Balb3T3
T1 sequence (P32247 1-399): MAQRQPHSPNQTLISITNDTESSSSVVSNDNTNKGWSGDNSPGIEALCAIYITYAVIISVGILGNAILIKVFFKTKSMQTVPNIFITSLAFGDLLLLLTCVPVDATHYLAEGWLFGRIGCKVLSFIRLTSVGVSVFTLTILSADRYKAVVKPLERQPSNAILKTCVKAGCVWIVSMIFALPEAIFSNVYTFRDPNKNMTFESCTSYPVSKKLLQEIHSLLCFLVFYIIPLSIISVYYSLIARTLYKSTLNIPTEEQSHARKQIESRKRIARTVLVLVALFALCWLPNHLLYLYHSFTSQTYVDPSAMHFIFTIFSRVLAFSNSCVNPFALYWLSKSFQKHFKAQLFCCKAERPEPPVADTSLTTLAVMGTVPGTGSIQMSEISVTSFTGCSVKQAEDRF
Description: Bombesin receptor is a well-characterized cell surface receptor which is known to internalize and decrease in cell surface expression following agonist (bombesin) binding. Balb3T3 cells expressing human bombesin (hBombesin) 3 with a FLAG tag and Balb3T3 cells expressing human bombesin 3 without a FLAG tag were used to monitor the expression and binding activity of the bombesin receptor, GPCR in these cells.
About 10 nM or 300 nM of the Bombesin peptide agonist, (6-14)[D-tyr6, b-Ala11, Phe13, Nle14] was incubated with Balb3T3 hBombesin 3 FLAG cells and Balb3T3 hBombesin WT cells for 1 hour at 37° C. after which cells were harvested, labeled with 10 μM to 30 μM Al^3+-phthalocyanine. The phthalocyanine-loaded cells are washed several times in MES or HEPES buffer following the incubation to remove excess phthalocyanine. About 20 to 40 of the anti-FLAG antibody-conjugated acceptor beads including a thioxene and europium chelate emission system are added to the assay mix including MES or HEPES buffer and the phthalocyanine-loaded cells and incubated for 1 hour at room temperature. […] The FLAG-tagged hBombesin was detected with anti-FLAG Acceptor beads in the assay.

MEK1/ERK2, sequence (Q02750 whole entry, species assumed): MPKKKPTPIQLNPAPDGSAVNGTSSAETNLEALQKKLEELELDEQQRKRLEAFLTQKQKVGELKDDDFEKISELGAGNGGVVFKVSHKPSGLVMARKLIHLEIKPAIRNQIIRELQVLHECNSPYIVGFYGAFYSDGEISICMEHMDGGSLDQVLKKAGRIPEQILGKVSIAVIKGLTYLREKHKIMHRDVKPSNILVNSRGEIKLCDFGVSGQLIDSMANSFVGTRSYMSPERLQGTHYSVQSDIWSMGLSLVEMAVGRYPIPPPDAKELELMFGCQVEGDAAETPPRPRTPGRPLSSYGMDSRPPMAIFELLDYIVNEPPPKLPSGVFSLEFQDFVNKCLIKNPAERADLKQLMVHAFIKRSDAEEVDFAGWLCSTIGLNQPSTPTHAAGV
MEK1, sequence (Q02750 whole entry, species assumed): as above

Nc1ncnc2c1ncn2[C@@H]1O[C@H](COP(=O)(O)OP(=O)(O)OP(=O)(O)O)[C@@H](O)[C@H]1O [ATP]
EC50 (MEK1): ~1000 nM
EC50 (MEK1/ERK2): ~1000 nM

(6-14)[D-tyr6, b-Ala11, Phe13, Nle14]
surface expression of the bombesin receptor following agonist stimulation [1]: Changes in surface expression of the bombesin receptor following agonist stimulation are detected
